The source of these data is US9428508B2, “2,4-diamino-6,7-dihydro-5H-pyrrolo[2,3]pyrimidine derivatives as FAK/Pyk2 inhibitors” (Centaurus BioPharma Co., Ltd., priority 2011, dated 2016).

Assay [1] addresses PYK2 (Homo sapiens (Human), UniProt Q14289). Description: Biochemical assay for PYK2 activity (LANCE TR-FRET, ULight-poly Glu,Ala,Tyr substrate). The conditions noted are these: GST-tagged PYK2, 40 min reaction. The procedure, abridged:
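GST-tagged human PYK2 (2 nM working stock) with ULight-poly Glu,Ala,Tyr (1:1:1) peptide (666 nM working stock) and ATP (46.6 μM working stock) in 40 mM Tris pH 7.5, MgCl2, 1 mM DTT, 1 mM CHAPS; 40 min reaction, EDTA quench. Phosphotyrosine read by LANCE Eu-anti-phosphotyrosine (PY20) TR-FRET after 60 min; 12-point 3-fold compound dilutions.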

In assay [2] the target is FAK (Homo sapiens (Human), UniProt Q05397). The experiment in a line: Biochemical assay for FAK activity (LANCE TR-FRET, ULight-poly Glu,Ala,Tyr substrate). The conditions noted are these: GST-tagged FAK, 120 min reaction. The procedure, abridged: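 GST-tagged FAK (2.5 nM working stock) with ULight-poly Glu,Ala,Tyr (666 nM stock) and ATP (33.3 μM stock) in Tris pH 7.5/MgCl2/DTT/CHAPS buffer with BSA, 120 min; EDTA-quenched. Phosphorylation read by TR-FRET with Eu-anti-phosphotyrosine (PY20) antibody after 60 min. Compounds tested as 12-point 3-fold dilutions.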

Structures are written as SMILES. pIC50: −log10 of the molar value. Where only a bound is given, the exact number is not on record here.

FAK, sequence (Q05397 whole entry): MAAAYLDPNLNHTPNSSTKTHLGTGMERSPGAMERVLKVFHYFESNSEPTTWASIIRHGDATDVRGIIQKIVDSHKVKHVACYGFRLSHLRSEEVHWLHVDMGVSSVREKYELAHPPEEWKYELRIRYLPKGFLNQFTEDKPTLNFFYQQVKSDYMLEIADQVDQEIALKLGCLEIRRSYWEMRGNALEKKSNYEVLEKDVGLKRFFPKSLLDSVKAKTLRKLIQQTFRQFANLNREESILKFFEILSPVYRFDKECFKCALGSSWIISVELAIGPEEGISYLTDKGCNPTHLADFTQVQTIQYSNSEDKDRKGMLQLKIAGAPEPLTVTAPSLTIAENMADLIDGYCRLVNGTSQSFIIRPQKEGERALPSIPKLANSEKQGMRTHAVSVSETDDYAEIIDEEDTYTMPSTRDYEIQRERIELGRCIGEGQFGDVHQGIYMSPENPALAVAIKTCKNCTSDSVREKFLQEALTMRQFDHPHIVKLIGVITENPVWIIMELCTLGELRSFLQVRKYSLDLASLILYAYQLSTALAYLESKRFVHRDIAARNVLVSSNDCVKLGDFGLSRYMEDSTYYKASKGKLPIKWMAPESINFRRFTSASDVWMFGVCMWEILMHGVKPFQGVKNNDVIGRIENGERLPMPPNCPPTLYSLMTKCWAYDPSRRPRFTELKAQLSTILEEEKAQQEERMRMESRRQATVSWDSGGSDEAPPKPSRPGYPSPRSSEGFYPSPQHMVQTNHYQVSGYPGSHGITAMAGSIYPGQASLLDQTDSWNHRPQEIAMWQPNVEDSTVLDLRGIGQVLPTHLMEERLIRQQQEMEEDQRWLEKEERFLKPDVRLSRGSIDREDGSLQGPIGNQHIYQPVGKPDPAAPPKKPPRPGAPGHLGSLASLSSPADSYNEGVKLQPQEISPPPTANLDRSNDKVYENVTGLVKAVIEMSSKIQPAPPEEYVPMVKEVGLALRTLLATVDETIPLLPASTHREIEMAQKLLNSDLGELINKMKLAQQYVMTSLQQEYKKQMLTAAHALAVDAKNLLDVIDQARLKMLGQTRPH
PYK2, sequence (Q14289 whole entry): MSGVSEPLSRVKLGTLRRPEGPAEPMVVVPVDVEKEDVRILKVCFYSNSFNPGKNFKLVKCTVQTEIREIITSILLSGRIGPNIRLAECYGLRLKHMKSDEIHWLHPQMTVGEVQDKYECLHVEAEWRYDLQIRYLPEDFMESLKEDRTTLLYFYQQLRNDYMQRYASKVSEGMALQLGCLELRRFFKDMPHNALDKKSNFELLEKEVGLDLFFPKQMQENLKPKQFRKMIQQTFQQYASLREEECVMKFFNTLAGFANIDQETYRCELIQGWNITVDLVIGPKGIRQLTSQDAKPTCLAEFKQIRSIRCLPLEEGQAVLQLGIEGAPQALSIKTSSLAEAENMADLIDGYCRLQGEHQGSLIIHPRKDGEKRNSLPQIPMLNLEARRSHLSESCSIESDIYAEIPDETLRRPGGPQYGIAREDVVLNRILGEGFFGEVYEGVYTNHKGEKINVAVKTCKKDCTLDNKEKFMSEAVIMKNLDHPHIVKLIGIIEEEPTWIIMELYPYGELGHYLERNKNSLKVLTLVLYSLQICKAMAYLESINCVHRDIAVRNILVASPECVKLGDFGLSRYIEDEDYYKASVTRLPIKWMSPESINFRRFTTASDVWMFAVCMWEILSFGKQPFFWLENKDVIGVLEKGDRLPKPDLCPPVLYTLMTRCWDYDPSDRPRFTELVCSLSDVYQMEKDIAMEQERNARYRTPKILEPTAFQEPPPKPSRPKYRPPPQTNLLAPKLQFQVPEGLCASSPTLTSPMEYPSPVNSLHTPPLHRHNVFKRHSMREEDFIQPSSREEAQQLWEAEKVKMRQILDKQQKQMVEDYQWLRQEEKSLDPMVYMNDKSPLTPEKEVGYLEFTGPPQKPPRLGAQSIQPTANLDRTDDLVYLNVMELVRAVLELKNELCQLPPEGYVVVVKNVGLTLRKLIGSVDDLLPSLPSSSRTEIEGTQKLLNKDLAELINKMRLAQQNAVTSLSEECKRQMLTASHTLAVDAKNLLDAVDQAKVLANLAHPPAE

As for `COc1cc(N2CCOCC2)ccc1Nc1nc2c(c(Nc3ccccc3S(=O)(=O)NC3CCCCC3)n1)C(C)CN2` (racemic) [Example 29, (±)-N-cyclohexyl-2-(2-(2-methoxy-4-morpholinophenylamino)-5-methyl-6,7-dihydro-5H-pyrrolo[2,3-d]pyrimidin-4-ylamino)benzenesulfonamide], the figures for the pIC50 in assay [1] and in assay [2] were above 6.30 and above 7.30, respectively.

As to `CNS(=O)(=O)c1ccccc1Nc1nc(Nc2ccc(N3CCOCC3)cc2OC)nc2c1C1(CC1)CN2` [Example 135, 2-(2′-(2-methoxy-4-morpholinophenylamino)-6′,7′-dihydrospiro[cyclopropane-1,5′-pyrrolo[2,3-d]pyrimidine]-4′-ylamino)-N-methylbenzenesulfonamide], the pIC50 in assay [1] is above 7.70; in assay [2] it was above 7.30.

Take `CNC(=O)c1ccccc1Nc1nc(Nc2cc(C)nn2C)nc2c1C(C)(C)CN2` [Example 132, 2-(2-(1,3-dimethyl-1H-pyrazol-5-ylamino)-5,5-dimethyl-6,7-dihydro-5H-pyrrolo[2,3-d]pyrimidin-4-ylamino)-N-methylbenzamide]: the pIC50 in assay [1] is above 7.30; in assay [2], above 7.70.

As for `COc1cc(N2CCOCC2)ccc1Nc1nc2c(c(Nc3ccccc3S(=O)(=O)NC(C)C)n1)C(C)(C)CN2` [Example 105, N-isopropyl-2-(2-(2-methoxy-4-morpholinophenylamino)-5,5-dimethyl-6,7-dihydro-5H-pyrrolo[2,3-d]pyrimidin-4-ylamino)benzenesulfonamide], the pIC50 in assay [1] and in assay [2] was above 7.70 each time.

Consider `COc1cc(N2CCC(N3CCN(C)CC3)CC2)ccc1Nc1nc2c(c(Nc3ccccc3S(=O)(=O)NC(C)C)n1)CCN2` [Example 96, N-isopropyl-2-(2-(2-methoxy-4-(4-(4-methylpiperazin-1-yl)piperidin-1-yl)phenylamino)-6,7-dihydro-5H-pyrrolo[2,3-d]pyrimidin-4-ylamino)benzenesulfonamide], for which the pIC50 in assay [1] and in assay [2] was above 7.70 in each case.

As for `CNC(=O)c1ccccc1Nc1nc(Nc2cccc3c2OCCO3)nc2c1CCN2` [Example 15, 2-(2-(2,3-dihydrobenzo[b][1,4]dioxin-5-ylamino)-6,7-dihydro-5H-pyrrolo[2,3-d]pyrimidin-4-ylamino)-N-methylbenzamide], the pIC50 in assay [1] and in assay [2] was above 6.30 throughout.

Turning to `CC(C)NS(=O)(=O)c1ccccc1Nc1nc(Nc2ccc(N3CCOCC3)cc2)nc2c1CCN2` [Example 52, N-isopropyl-2-(2-(4-morpholinophenylamino)-6,7-dihydro-5H-pyrrolo[2,3-d]pyrimidin-4-ylamino)benzenesulfonamide], the pIC50 in assay [1] and in assay [2] was above 7.70 each time.

As to `COc1cc(N2CCC(N3CCNCC3)CC2)ccc1Nc1nc2c(c(Nc3ccccc3S(=O)(=O)NC(C)C)n1)CCN2` [Example 97, N-isopropyl-2-(2-(2-methoxy-4-(4-(piperazin-1-yl)piperidin-1-yl)phenylamino)-6,7-dihydro-5H-pyrrolo[2,3-d]pyrimidin-4-ylamino)benzenesulfonamide], the pIC50 in assay [1] was above 6.30; in assay [2] it was above 7.00.

For `COc1cc(-n2ccnc2)ccc1Nc1nc2c(c(Nc3ccccc3S(=O)(=O)NC(C)C)n1)CCN2` [Example 77, 2-(2-(4-(1H-imidazol-1-yl)-2-methoxyphenylamino)-6,7-dihydro-5H-pyrrolo[2,3-d]pyrimidin-4-ylamino)-N-isopropylbenzenesulfonamide], the pIC50 in assay [1] and in assay [2] was above 6.30 throughout.

`COc1cc(N2CCOCC2)ccc1Nc1nc2c(c(Nc3ccccc3S(=O)(=O)NC3CCCC3)n1)CCN2` [Example 7, N-cyclopentyl-2-(2-(2-methoxy-4-morpholinophenylamino)-6,7-dihydro-5H-pyrrolo[2,3-d]pyrimidin-4-ylamino)benzenesulfonamide]: the values for the pIC50 in assay [1] and in assay [2] were above 7.00 and above 7.30, respectively.

On to `CC(C)NS(=O)(=O)c1ccccc1Nc1nc(Nc2ccc(C(F)(F)F)cc2)nc2c1CCN2` [Example 61, N-isopropyl-2-(2-(4-(trifluoromethyl)phenylamino)-6,7-dihydro-5H-pyrrolo[2,3-d]pyrimidin-4-ylamino)benzenesulfonamide], for which the results for the pIC50 in assay [1] and in assay [2] were above 6.30 and above 6.00, respectively.

For `CCNS(=O)(=O)c1ccccc1Nc1nc(Nc2ccc(N3CCOCC3)cc2OC)nc2c1C(C)(C)CN2` [Example 113, N-ethyl-2-(2-(2-methoxy-4-morpholinophenylamino)-5,5-dimethyl-6,7-dihydro-5H-pyrrolo[2,3-d]pyrimidin-4-ylamino)benzenesulfonamide], the pIC50 in assay [1] and in assay [2] was above 7.70 in each case.

As to `CNS(=O)(=O)c1ccccc1Nc1nc(Nc2ccc(N3CCOCC3)cc2OC)nc2c1C(C)CN2` (racemic) [Example 25, (±)-2-(2-(2-methoxy-4-morpholinophenylamino)-5-methyl-6,7-dihydro-5H-pyrrolo[2,3-d]pyrimidin-4-ylamino)-N-methylbenzenesulfonamide], the negative logarithm of the IC50 (pIC50) is above 7.70 in assay [1] and above 7.30 in assay [2].

Regarding `COc1nc(N2CCOCC2)ccc1Nc1nc2c(c(Nc3ccccc3S(=O)(=O)NC(C)C)n1)CCN2` [Example 56, N-isopropyl-2-(2-(2-methoxy-6-morpholino-3-ylamino)-6,7-dihydro-5H-pyrrolo[2,3-d]pyrimidin-4-ylamino)benzenesulfonamide], the pIC50 was above 7.30 in assay [1] and above 7.70 in assay [2].

Turning to `CCN1C(=O)CCCc2c1ccc(Nc1nc3c(c(Nc4ccccc4C(=O)NC)n1)CCN3)c2OC` [Example 17, 2-(2-(1-ethyl-6-methoxy-2-oxo-2,3,4,5-tetrahydro-1H-benzo[b]azepin-7-ylamino)-6,7-dihydro-5H-pyrrolo[2,3-d]pyrimidin-4-ylamino)-N-methylbenzamide], the pIC50 in assay [1] was above 6.70; in assay [2], above 6.00.

As to `CNC(=O)c1ccccc1Nc1nc(Nc2ccc3c(ccn3CCCN3CCOCC3)c2)nc2c1C(C)(C)CN2` [Example 134, 2-(5,5-dimethyl-2-(1-(3-morpholinopropyl)-1H-indol-5-ylamino)-6,7-dihydro-5H-pyrrolo[2,3-d]pyrimidin-4-ylamino)-N-methylbenzamide], the pIC50 in assay [1] and in assay [2] was above 6.70 each time.

As to `COc1cc(N2CCOCC2)ccc1Nc1nc2c(c(Nc3ccccc3S(=O)(=O)C(C)C)n1)CCN2` [Example 100, N^4-(2-(isopropylsulfonyl)phenyl)-N^2-(2-methoxy-4-morpholinophenyl)-6,7-dihydro-5H-pyrrolo[2,3-d]pyrimidine-2,4-diamine], the pIC50 in assay [1] is above 7.30; in assay [2] it was above 7.70.

Regarding `CNC(=O)c1ccccc1Nc1nc(Nc2cc(OC)c(OC)c(OC)c2)nc2c1CCN2` [Example 21, N-methyl-2-(2-(3,4,5-trimethoxyphenylamino)-6,7-dihydro-5H-pyrrolo[2,3-d]pyrimidin-4-ylamino)benzamide], the results for the pIC50 in assay [1] and in assay [2] were above 6.52 and above 6.00, respectively.

With `COc1cc(N2CCOCC2)ccc1Nc1nc2c(c(Nc3cccc(C)n3)n1)CCN2` [Example 12, N^2-(2-methoxy-4-morpholinophenyl)-N^4-(6-methylpyridin-2-yl)-6,7-dihydro-5H-pyrrolo[2,3-d]pyrimidine-2,4-diamine], the pIC50 in assay [1] and in assay [2] was above 7.00 each time.

Consider `COc1cc(N2CCOCC2)ccc1Nc1nc2c(c(Nc3ccccc3S(=O)(=O)NC3CC3)n1)CCN2` [Example 42, N-cyclopropyl-2-(2-(2-methoxy-4-morpholinophenylamino)-6,7-dihydro-5H-pyrrolo[2,3-d]pyrimidin-4-ylamino)benzenesulfonamide], for which the pIC50 in assay [1] is above 7.30; in assay [2], above 7.70.

For `CNC(=O)c1ccc(Nc2nc3c(c(Nc4ccccc4S(=O)(=O)NC(C)C)n2)CCN3)cc1` [Example 53, 4-(4-(2-(N-isopropylsulfamoyl)phenylamino)-6,7-dihydro-5H-pyrrolo[2,3-d]pyrimidin-2-ylamino)-N-methylbenzamide], the pIC50 in assay [1] and in assay [2] was above 7.70 in each case.

As to `CNC(=O)c1ccc2c(c1Nc1nc(Nc3ccc(N4CCOCC4)cc3OC)nc3c1C(C)(C)CN3)OCO2` [Example 126, 4-(2-(2-methoxy-4-morpholinophenylamino)-5,5-dimethyl-6,7-dihydro-5H-pyrrolo[2,3-d]pyrimidin-4-ylamino)-N-methylbenzo[d][1,3]dioxole-5-carboxamide], the pIC50 in assay [1] is below 6.00; in assay [2], above 6.00.

Take `COc1cc(N2CCC(N3CCCC3)CC2)ccc1Nc1nc2c(c(Nc3ccccc3S(=O)(=O)NC(C)C)n1)CCN2` [Example 93, N-isopropyl-2-(2-(2-methoxy-4-(4-(pyrrolidin-1-yl)piperidin-1-yl)phenylamino)-6,7-dihydro-5H-pyrrolo[2,3-d]pyrimidin-4-ylamino)benzenesulfonamide]: the pIC50 in assay [1] and in assay [2] was above 7.70 throughout.

In the case of `COc1cc(N2CCOCC2)ccc1Nc1nc2c(c(Nc3ccccc3S(=O)(=O)NCCO)n1)C(C)(C)CN2` [Example 119, N-(2-hydroxyethyl)-2-(2-(2-methoxy-4-morpholinophenylamino)-5,5-dimethyl-6,7-dihydro-5H-pyrrolo[2,3-d]pyrimidin-4-ylamino)benzenesulfonamide], the pIC50 is above 6.70 in assay [1] and above 6.30 in assay [2].
